We go through six molecules from article PMC6283646, “Identification and binding mode of a novel Leishmania Trypanothione reductase inhibitor from high throughput screening” (PLoS Neglected Tropical Diseases, 2018).

Read-outs that look alike come from different tables or passages of the source.

For data set [1], the system named is L. infantum promastigotes. Nature of the data set: Inhibition of promastigote growth (MTT). In kind it is cell-based. Particulars: for IC50: Leishmania infantum, 72 h, MTT. The protocol:
Promastigote (the extracellular stage of the Leishmania life cycle) growth inhibition was evaluated using L. infantum strain (MHOM/TN/80/IPT1). […] Promastigotes were grown in Schneider’s Drosophila medium (SIGMA) containing 10% Fetal Calf Serum (FCS) (GIBCO-BRL) and 2% gentamicin (50 mg/L) (Sigma) at 22°C. Parasites were adjusted to 1 × 10^6 parasites/mL, and 200 μL of suspension was seeded in triplicate in 96-well flat bottom microplates and incubated with varying concentrations of compound. […] Each experiment was done in triplicate for each drug concentration and two independent experiments were performed. After 72 h of incubation, 30 μL of MTT was added to each well and plates were further incubated for 2 h. The absorbance at 550 nm was measured with a 96-well scanner (DINEX Technologies, VA, USA). Anti-leishmanial activity per experimental point was expressed as mean percentage of inhibition with respect to vehicle treated parasites (0%). In addition, the promastigote vitality was followed by microscopic observation after 72 h. Data were analyzed and plotted by Prism (GraphPad, San Diego, USA).

Data set [2] concerns the target T1, L. infantum TR (Leishmania infantum, UniProt A4HSF7).
T1 construct: made in house
As to the kind of experiment: Luminescence-based (NADPH-Glo) TR enzymatic assay. In kind it is biochemical. From the text: (§1) L. infantum TR was cloned and purified as previously described.[9, 28] Bovine serum albumin (BSA), NADPH, auranofin, hGR, oxidized glutathione (GSSG) and DTNB were purchased from Sigma-Aldrich (St. Louis, MO); oxidized trypanothione (TS2) was purchased from Bachem (Bubendorf, Switzerland); the NADPH-Glo kit was purchased from Promega (Madison, WI, U.S.A.). Compounds, dissolved in DMSO, were transferred to 384-well white plates (Greiner Bio One, Frickenhausen, Germany) using the acoustic droplet ejection technology (ATS-100, EDC Biosystems, U.S.A.) to reach the desired final concentration. The TR enzymatic reaction was performed by addition of 0.1 nM TR, 12.5 μM NAPDH, 15 μM TS2 in 50 mM HEPES (pH 7.4), 40 mM NaCl, 0.01% BSA in a final volume of 15 μL. After 60 min of incubation at room temperature, an equal volume of NADPH-Glo reagent was added and the luminescent signal was acquired by an EnVision plate reader (PerkinElmer, Waltham, MA, U.S.A.). […] In addition, in order to make sure that the production of a reducing agent (i.e. T(SH)2) by the TR activity was not going to interfere with the assay, and in absence of T(SH)2 as purified reagent, the effect of DTT and GSH was tested on the NADPH-Glo reaction resulting in no interference at concentrations relevant for the current setup (S2 Fig). The hGR assay was performed by addition of 0.5 nM hGR, 10 μM GSSG, 20 μM NADPH in 50 mM HEPES (pH 7.4), 40 mM NaCl, 0.01% BSA in a final volume of 15 μL. After 30 min incubation at room temperature 15 μl of NADPH-Glo kit was added to reveal the signal. The 5,5′-dithiobis(2-nitrobenzoic acid) (DTNB) assay was performed using 2 nM TR, 100 μM NADPH, 4 μM TS2 and 200 μM DTNB in 40 mM HEPES (pH 7.4), 1 mM EDTA, 0.01% BSA and 0.05% tween-20 in a final volume of 50 μl. The absorbance signal (412 nm) was acquired 15 minutes post incubation at room temperature using the plate reader (Safire2, Tecan, Switzerland). Results were analyzed using Prism software (GraphPad, San Diego, CA, U.S.A.) and Vortex (Dotmatics, Bioshops Stortford, UK). Dose-response curves were fitted by four-parameter logistic regression.

The target in data set [3] is T1, L. infantum TR. As to the kind of experiment: DTNB absorbance-based TR assay. In kind it is biochemical.
Description: as §1, with “The 5,5′-dithiobis(2-nitrobenzoic acid) (DTNB) assay was performed using 2 nM TR, 100 μM NADPH, 4 μM TS2 and 200 μM DTNB in 40 mM HEPES (pH 7.4), 1 mM EDTA, 0.01% BSA and 0.05% tween-20 in a final volume of 50 μl.” left out

Data set [4] addresses T2, human glutathione reductase (hGR) (Homo sapiens, UniProt P00390).
T2 construct: purchased Sigma-Aldrich
T2 sequence (P00390 44-522): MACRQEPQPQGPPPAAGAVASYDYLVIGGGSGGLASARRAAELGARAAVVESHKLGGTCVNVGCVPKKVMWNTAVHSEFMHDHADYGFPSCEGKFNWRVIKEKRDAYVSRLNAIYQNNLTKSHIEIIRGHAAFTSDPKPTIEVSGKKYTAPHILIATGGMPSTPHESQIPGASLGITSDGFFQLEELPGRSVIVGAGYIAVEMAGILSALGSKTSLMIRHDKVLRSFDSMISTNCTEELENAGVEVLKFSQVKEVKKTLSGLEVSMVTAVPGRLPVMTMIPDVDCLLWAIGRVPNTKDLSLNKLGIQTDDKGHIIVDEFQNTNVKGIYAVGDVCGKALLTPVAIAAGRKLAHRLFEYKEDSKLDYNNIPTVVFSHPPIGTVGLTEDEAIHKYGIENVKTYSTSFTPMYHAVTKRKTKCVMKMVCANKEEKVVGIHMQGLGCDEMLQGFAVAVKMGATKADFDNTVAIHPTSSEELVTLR
As to the kind of experiment: hGR assay (NADPH-Glo). Type of data set: biochemical. The conditions noted are these: for IC50: n=3.
Description: as §1

Data set [5] can be described thus: Solubility in assay buffer. Type of data set: physicochemical. The conditions noted are these: aqueous buffer.
Data set [6] deals with T3, TR (Leishmania infantum, UniProt A4HSF7).
T3 construct: made in house
As to the kind of experiment: Binding assay by SPR. The protocol: Surface plasmon resonance (SPR) interaction analysis was performed using a Biacore T200 (GE Healthcare, Uppsala, Sweden). TR was immobilized on a CM4 chip by amine coupling according to manufacturer’s instructions (Amine Coupling Kit, GE Healthcare, Uppsala, Sweden). Briefly, the surface of the sensor chip was activated for 7 min using a mixture of 0.1 M N-hydroxy succinimide (NHS) and 0.4 M N-ethyl-N’-[3-dimethyl-aminopropyl] carbodiimide (EDC) then 25 μg/mL of TR in 10 mM sodium acetate (pH 5.0) was injected for 360 s at 10 μl/min, finally residual activated groups on the surface were blocked by a 7-min injection of 1 M ethanolamine (pH 8.5). A reference channel for background subtraction was prepared by activation with EDC/NHS mixture (0.1 M/0.4 M as per ligand immobilization), followed by blocking with 1 M ethanolamine. The binding of the selected hit to the immobilized ligand was evaluated by a multi-cycle kinetic procedure in 50 mM HEPES pH 7.4, 40 mM NaCl, 0.05% Tween-20 supplemented with 2% DMSO (Sigma Aldrich). The analyte was injected for 20 s at 30 μl/min until equilibrium and dissociation monitored for 120 s. A standard curve of DMSO was included for solvent correction. Biomolecular binding events were reported as changes of resonance units (RUs) over time. The data were analysed by the Biacore T200 evaluation software: specific sensorgrams were obtained for the analyte, by subtracting the signals of the reference channel to those of the TR-immobilized one, and corrected for DMSO interference from DMSO standard curve. The binding affinity was evaluated at steady state whereas the kinetic parameters were calculated by a one-phase association and two-phase dissociation model using the Prism software (GraphPad, San Diego, CA, U.S.A.)

Data set [7] has as its target T3, TR. As to the kind of experiment: Competition assay with TS2 or NADPH. The conditions noted are these: 4, 16, 64 μM compound. In kind it is biochemical. The protocol:
Competition assays were performed using three test concentrations (4, 16 and 64 μM) for the competing compounds. The reaction buffer and components were mostly identical to those used in the TR assay described above, but 1 nM TR was employed for 5 minutes against a serial dilution of either TS2 in presence of 40 μM NADPH or NADPH in presence of 30 μM TS2. The residual amount of NADPH was measured using the NADPH-Glo kit (Promega, U.S.A.) after 30 min incubation at room temperature as per the manufacturer’s protocol. The luminescent signal was measured using the EnVision plate reader (PerkinElmer, USA). IC50, Vmax, and Km values were calculated using Prism software (GraphPad, San Diego, CA, U.S.A.).
The NADPH concentration for the TS2 dilutions was 40 μM while the TS2 concentration for the NADPH dilutions was 30 μM.

The target of data set [8] is T3, TR. Set-up: method as in PMID 26033467. The conditions noted are these: read-out: TS2 Km; cited from earlier work.
Where [9] appears, read: Fig 5, read-out: IC50 (TR inhibition potency).

By solubility is commonly meant the dissolved amount per volume that the medium holds. For orientation: Kd means a measure of binding affinity in units of concentration. Broadly, the kon is a measure of how fast the partners come together. A higher kon goes with fast association. One may read the Km as the concentration of substrate that gives half-maximal velocity.

T3 sequence (A4HSF7 1-491): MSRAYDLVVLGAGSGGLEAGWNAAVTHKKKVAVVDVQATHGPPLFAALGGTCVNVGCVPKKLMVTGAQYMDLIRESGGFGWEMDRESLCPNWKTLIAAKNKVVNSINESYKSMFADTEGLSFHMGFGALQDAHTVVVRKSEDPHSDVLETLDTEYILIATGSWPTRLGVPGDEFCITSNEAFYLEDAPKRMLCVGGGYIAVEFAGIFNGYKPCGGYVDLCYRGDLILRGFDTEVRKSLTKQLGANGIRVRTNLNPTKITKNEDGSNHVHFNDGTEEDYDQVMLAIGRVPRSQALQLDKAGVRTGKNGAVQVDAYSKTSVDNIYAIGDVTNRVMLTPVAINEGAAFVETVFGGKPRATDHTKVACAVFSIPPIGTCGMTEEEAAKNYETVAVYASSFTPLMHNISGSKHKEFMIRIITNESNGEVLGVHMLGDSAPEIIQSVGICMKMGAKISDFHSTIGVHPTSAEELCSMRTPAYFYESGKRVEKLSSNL
T1 sequence (A4HSF7 entry or part of it): as the sequence (A4HSF7 1-491) above

`C[C@@H]1[C@H](O)[C@@H](C)/C=C/C=C/C=C/C=C/C=C/C=C/C=C/[C@H](O[C@@H]2O[C@H](C)[C@@H](O)[C@H](N)[C@@H]2O)C[C@@H]2O[C@](O)(C[C@@H](O)C[C@@H](O)[C@H](O)CC[C@@H](O)C[C@@H](O)CC(=O)O[C@H]1C)C[C@H](O)[C@H]2C(=O)O` [Amphotericin B, reference compound] registered an IC50 in data set [1] of 0.5 µM.

Regarding `CC(=O)OC[C@H]1O[C@@H]([S-])[C@H](OC(C)=O)[C@@H](OC(C)=O)[C@@H]1OC(C)=O.CCP(CC)CC.[Au+]` [Auranofin, reference compound], the IC50 came out at 6.6 ± 1.05 µM on L. infantum TR [2] (dose-response, Fig 3D, read-out: potency, luminescent assay) and 0.154 ± 0.0107 µM on L. infantum TR [3] (dose-response, Fig 3D, read-out: potency, DTNB assay).

On to `O=C(N/N=C/c1ccc([N+](=O)[O-])s1)C1CC12CCC2` (stereo not drawn) [Compound 1], for which the IC50 on L. infantum TR [2] (setting [9]) is 1.76 ± 0.371 µM.

Consider `CN(C)C(=O)c1ccc(NCCC(=O)c2cc3ccccc3o2)cc1` [Compound 2], for which the IC50 at L. infantum TR [2] (setting [9]) turned out to be 13.3 ± 2.69 µM; on L. infantum TR [2] (n=3, read-out: TR assay IC50), 13.3 ± 2.69 µM; in data set [4], 13.9 ± 3.5 µM. The “selectivity for TR with respect to hGR” value in data set [4] is reported as “not selective”.

Turning to `CCN(CC)CCOC(=O)c1ccc(NCCC(=O)c2ccc([N+](=O)[O-])cc2)cc1` [Compound 3, 2-(Diethylamino)ethyl 4-((3-(4-nitrophenyl)-3-oxopropyl)amino)benzoate], the solubility in data set [5] is more than 100 µM. The Kd on TR [6] (Kd from kslow/kon ratio, kslow/kon) was 22.7 µM; at TR [6] (steady state, read-out: steady state calculated Kd), 28.3 ± 5.12 µM. Also, the on-rate (kon) at TR [6] (one-phase association model) came out at 3510 ± 1.09e+06 M⁻¹ s⁻¹. The same molecule showed a kfast on TR [6] (two-phase dissociation model) of 5.88 ± 0.96 s⁻¹. Moreover, the kslow on TR [6] (two-phase dissociation model) came to 0.08 ± 0.02 s⁻¹. In addition, the “competition with NADPH” value on TR [7] (30 μM TS2) is recorded as “competitive for NADPH”. Moreover, the “effect on TS2 Km” value on TR [7] (40 μM NADPH) was “did not alter TS2 Km”. Besides, the IC50 on L. infantum TR [2] (setting [9]) was 7.51 ± 2.53 µM; at L. infantum TR [2] (n=3, read-out: TR assay IC50), 7.52 ± 2.53 µM; at L. infantum TR [2] (read-out: Luminescence assay IC50 (in vitro potency, TR)) it was 7.5 ± 2.5 µM; at L. infantum TR [3] (read-out: DTNB IC50) it was 4 ± 0.9 µM; in data set [4] it was more than 85 µM; in data set [1], 12.4 ± 1.09 µM. Also, the “selectivity for TR with respect to hGR” value in data set [4] is recorded as “selective”. Also, the promastigote mortality in data set [1] (72 h after treatment, up to 100 μM) stood at 100%.

In the case of `N[C@@H](CCC(=O)N[C@@H](CS)C(=O)NCC(=O)NCCCCNCCCNC(=O)CNC(=O)[C@H](CS)NC(=O)CC[C@H](N)C(=O)O)C(=O)O` [TS2, N1,N8-bis(glutathionyl)spermidine], the Km at L. infantum TR [2] (luminescent assay, 0.5 nM TR, 12.5 μM NADPH, read-out: TS2 Km (apparent)) is 13.5 ± 3.8 µM; on TR [8], 23 ± 1 µM; on L. infantum TR [3] (DTNB assay, 20 nM TR, 100 μM NADPH, read-out: TS2 Km (apparent)) it was 3.6 ± 0.5 µM.
